Here are results for 17 molecules from PMC10827914 (Cellular and Molecular Life Sciences: CMLS, 2024).

Assay [1] deals with T1, recombinant human CD13 (rCD13) (Homo sapiens, UniProt P15144).
T1 construct: consisting of the CD13 extracellular domain expressed in HEK-293 cells; His-tag; purchased Sino Biological 10051-H08H; host or cells: HEK-293 cells
The assay is described as follows: rCD13 enzyme inhibition assay, L-alanine-p-nitroanilide substrate. The assay is classed as biochemical. The conditions noted are these: for IC50: rCD13 0.2 μg/mL, L-alanine-p-nitroanilide 0.5 mM, 60 mM potassium phosphate buffer pH 7.4, 30 min, 37 °C, absorbance, mean ± SEM of n independent experiments, read-out: IC50: peptide concentration that inhibits 50% of rCD13 enzymatic activity. The procedure: (§1) Recombinant CD13 (rCD13) enzyme activity and inhibition assays were performed as described previously using L-alanine-p-nitroanilide or L-alanine 7-amido-4-methylcoumarin as substrates in 60 mM Tris–HCl, pH 7.4, or 60 mM potassium phosphate buffer, pH 7.4. Mixtures containing peptides at various concentrations, rCD13 (0.2 µg/mL), and L-alanine-p-nitroanilide substrate (0.5 mM) in 60 mM potassium phosphate buffer, pH 7.4 (total volume, 0.1 ml) were prepared and left to react for 30 min at 37 °C. The products were then analyzed using a plate reader (iMark Microplate Absorbance Reader; Bio-Rad). Alternatively, the assay was performed using 0.1 mM L-alanine 7-amido-4-methylcoumarin in 60 mM Tris–HCl, pH 7.4, as a substrate. Fluorescence intensity of methylcoumarin was measured on an Infinite 200 PRO plate reader (Tecan) using the following settings: excitation wavelength: 341 nm; emission wavelength: 441 nm; excitation bandwidth: 9; emission bandwidth: 20 nm; gain: 109 manual; number of flashes: 25; integration time: 20 µs; lag time: 0 µs; settle time: 0 ms.
(§2) The IC50 of each inhibitor was calculated by non-linear regression analysis of inhibition data using GraphPad Prism Software (GraphPad Software, Version 9.00, San Diego, CA). Steady-state enzyme kinetic analyses were performed using various concentrations of L-alanine-p-nitroanilide (0–1.5 mM) and VGCARRYCS peptide (0–900 nM). The initial velocities (Vo) were calculated from the slopes of the first 5 min of reaction. The enzyme inhibitory constant (Ki) was calculated using the competitive enzyme inhibition model in GraphPad Prism Software.
A) VGCGRRYCSN and CSGIGSSGGC (control) peptides, at various concentrations, were mixed with rCD13 (0.2 µg/mL), L-alanine-p-nitroanilide substrate (0.5 mM), in 60 mM potassium phosphate buffer, pH 7.4. The mixtures were left to react for 30 min at 37° C; then the absorbance at 405 nm of each mixture was measured using an ELISA plate reader (Bio-Rad). The IC50 of each inhibitor was calculated by non-linear regression analysis of inhibition data using the GraphPad Prism Software (GraphPad Software, Version 9.00, San Diego, CA). The result of one experiment performed in duplicate is shown (mean ± SEM).

Assay [2] concerns the target T1, recombinant human CD13 (rCD13). In words: rCD13 enzyme inhibition assay, L-alanine 7-amido-4-methylcoumarin substrate. In kind it is biochemical. The conditions noted are these: 0.1 mM L-alanine 7-amido-4-methylcoumarin, 60 mM Tris-HCl pH 7.4, fluorescence; mean ± SEM of n independent experiments; read-out: IC50: peptide concentration that inhibits 50% of rCD13 enzymatic activity. The procedure: as §1, §2
Fig. 2 G4 recognizes soluble forms of CD13, with higher affinity and selectivity than bestatin, and the membrane forms expressed on the surface of HUVEC cells. A Inhibitory effects of G4 and bestatin on the enzymatic activities of different aminopeptidases (rCD13, APA, and APB). Various amounts of G4 or bestatin were incubated with rCD13 (0.2 µg/mL in 60 mM Tris–HCl pH 7.4), APA (0.2 µg/mL in 60 mM Tris–HCl pH 7.4, 50 mM calcium chloride, 200 mM sodium chloride) or APB (0.2 µg/mL in 60 mM Tris–HCl pH 7.4, 100 mM potassium chloride) and the corresponding substrates at 0.1 mM (L-alanine-7-amido-4-methylcoumarin for rCD13, L-glutamic acid γ-(7-amido-4-methylcoumarin) for APA, and L-arginine-7-amido-4-methylcoumarin for APB). The mixtures were incubated for 30 min at 37 °C, and the cleavage of each substrate was monitored by measuring the fluorescence of methylcoumarin (λex 341 nm; λem 441 nm) using an Infinite 200 PRO plate reader (Tecan). Three independent experiments were performed for each enzyme. The results of one representative experiment for each enzyme are shown (mean ± SEM, duplicates). B Inhibitory effects of G4 and bestatin on soluble CD13 immunocaptured from human serum (sCD13) using microtiter plates coated with anti-CD13 mAb WM15. The microtiter plate was filled with a solution of mAb WM15 (5 μg/ml in DPBS) and incubated overnight at 4 °C. The plate was then washed with DPBS, blocked with 3% bovine serum albumin (BSA) in DPBS, and filled with human serum containing soluble CD13 (diluted 1:2 with DPBS containing 2% BSA). After washing with DPBS, mixtures of G4 or bestatin (0–100 µM in 60 mM Tris–HCl, pH 7.4) and L-alanine p-nitroanilide hydrochloride substrate (4.5 mM in 60 mM Tris–HCl, pH 7.4) were added and left to incubate at 37 °C for 2 h. Substrate cleavage by sCD13 dissociated from mAb WM15 was then monitored by measuring the absorbance at 405 nm in each well using a plate reader (Bio-Rad). The results of one experiment performed in triplicate are shown (mean ± SEM). C Effect of G4 on the binding of the anti-CD13 mAb WM15 to HUVEC. HUVEC were seeded at a density of 2 × 10^5 cells in 100 µL DPBS supplemented with 5% normal human serum (NHS) and incubated with a mixture of G4 peptide (0, 0.1, 1, and 10 µM) and mAb WM15 (0 or 0.13 nM) as indicated. […]

For assay [3], the target named is His-tagged recombinant human CD13 (rCD13) (human) (UniProt P15144).
His-tagged recombinant human CD13 (rCD13) (human), sequence (P15144 33-967): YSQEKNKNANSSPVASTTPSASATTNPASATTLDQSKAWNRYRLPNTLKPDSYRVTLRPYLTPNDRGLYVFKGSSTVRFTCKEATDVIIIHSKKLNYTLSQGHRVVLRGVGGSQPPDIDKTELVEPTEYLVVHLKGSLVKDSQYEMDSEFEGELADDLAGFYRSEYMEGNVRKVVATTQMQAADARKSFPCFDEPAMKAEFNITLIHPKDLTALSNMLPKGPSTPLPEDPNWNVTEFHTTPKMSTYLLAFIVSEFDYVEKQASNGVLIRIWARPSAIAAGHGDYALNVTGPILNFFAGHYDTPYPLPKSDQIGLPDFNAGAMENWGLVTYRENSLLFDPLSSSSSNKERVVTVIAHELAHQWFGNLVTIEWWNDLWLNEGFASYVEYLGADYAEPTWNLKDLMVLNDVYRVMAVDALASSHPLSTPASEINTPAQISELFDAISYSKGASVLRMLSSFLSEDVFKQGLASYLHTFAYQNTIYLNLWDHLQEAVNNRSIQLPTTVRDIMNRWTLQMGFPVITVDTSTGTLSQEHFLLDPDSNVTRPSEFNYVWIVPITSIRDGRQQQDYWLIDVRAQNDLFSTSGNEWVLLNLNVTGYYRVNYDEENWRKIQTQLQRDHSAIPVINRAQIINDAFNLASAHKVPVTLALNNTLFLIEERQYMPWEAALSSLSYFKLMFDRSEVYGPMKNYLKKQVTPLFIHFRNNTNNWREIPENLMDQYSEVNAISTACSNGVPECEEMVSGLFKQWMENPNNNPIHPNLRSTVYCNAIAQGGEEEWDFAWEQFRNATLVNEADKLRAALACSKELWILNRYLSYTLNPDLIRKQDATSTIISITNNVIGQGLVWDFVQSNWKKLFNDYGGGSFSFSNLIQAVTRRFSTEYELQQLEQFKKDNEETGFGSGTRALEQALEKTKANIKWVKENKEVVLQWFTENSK

Where a SMILES comes first, the peptide text is derived from it. Bridges are numbered along the chain shown (N, C = ends). Where no end group is shown, it is not given here. Where only a bound is given, the exact number is not on record here.

T1 sequence (P15144 33-967 limits assumed): as the sequence (P15144 33-967) above

For `C[C@H](N)C(=O)NCC(=O)N[C@H]1CSSC[C@@H](C(=O)N[C@@H](CO)C(=O)N[C@@H](CC(N)=O)C(=O)O)NC(=O)[C@H](Cc2ccc(O)cc2)NC(=O)[C@H](CCCNC(=N)N)NC(=O)[C@H](CCCNC(=N)N)NC(=O)CNC1=O` [AGCGRRYCSN] (H-AGCGRRYCSN-OH; disulfide 3-8), in assay [1], the IC50 amounted to 11.4 ± 4.5 µM. `C[C@@H]1NC(=O)[C@@H](NC(=O)CN)CSSC[C@@H](C(=O)N[C@@H](CO)C(=O)N[C@@H](CC(N)=O)C(=O)O)NC(=O)[C@H](Cc2ccc(O)cc2)NC(=O)[C@H](CCCNC(=N)N)NC(=O)[C@H](CCCNC(=N)N)NC1=O` [GCARRYCSN] (H-GCARRYCSN-OH; disulfide 2-7): the IC50 in assay [2] was 40.1 ± 1.9 µM.

`C[C@@H]1NC(=O)[C@@H](NC(=O)CN)CSSC[C@@H](C(=O)N[C@@H](CO)C(=O)O)NC(=O)[C@H](Cc2ccc(O)cc2)NC(=O)[C@H](CCCNC(=N)N)NC(=O)[C@H](CCCNC(=N)N)NC1=O` [GCARRYCS] (H-GCARRYCS-OH; disulfide 2-7): the IC50 in assay [2] stood at 69.5 ± 0.1 µM. For `CC(C)[C@H](N)C(=O)N[C@@H](C)C(=O)N[C@H]1CSSC[C@@H](C(=O)N[C@@H](CO)C(=O)N[C@@H](CC(N)=O)C(=O)O)NC(=O)[C@H](Cc2ccc(O)cc2)NC(=O)[C@H](CCCNC(=N)N)NC(=O)[C@H](CCCNC(=N)N)NC(=O)CNC1=O` [VACGRRYCSN] (H-VACGRRYCSN-OH; disulfide 3-8), the IC50 in assay [1] turned out to be 4.5 ± 5.1 µM.

On to `CC(C)[C@H](N)C(=O)NCC(=O)N[C@H]1CSSC[C@@H](C(=O)N[C@@H](CO)C(=O)N[C@@H](CC(N)=O)C(=O)O)NC(=O)[C@H](Cc2ccc(O)cc2)NC(=O)[C@H](CCCNC(=N)N)NC(=O)[C@H](CCCNC(=N)N)NC(=O)[C@H](C)NC1=O` [VGCARRYCSN] (H-VGCARRYCSN-OH; disulfide 3-8), for which the figures for the IC50 in assay [2] and in assay [1] were 0.19 ± 0.01 µM and 0.2 ± 0.06 µM, respectively. Consider `CC(C)[C@H](N)C(=O)NCC(=O)N[C@H]1CSSC[C@@H](C(=O)O)NC(=O)[C@H](Cc2ccc(O)cc2)NC(=O)[C@H](CCCNC(=N)N)NC(=O)[C@H](CCCNC(=N)N)NC(=O)[C@H](C)NC1=O` [VGCARRYC] (H-VGCARRYC-OH; disulfide 3-8), for which, in assay [2], the IC50 is 0.23 ± 0.01 µM. Turning to `CC(C)[C@H](N)C(=O)NCC(=O)N[C@H]1CSSC[C@@H](C(=O)N[C@@H](CO)C(=O)N[C@@H](CC(N)=O)C(=O)O)NC(=O)[C@H](Cc2ccc(O)cc2)NC(=O)[C@H](CCCNC(=N)N)NC(=O)[C@H](C)NC(=O)CNC1=O` [VGCGARYCSN] (H-VGCGARYCSN-OH; disulfide 3-8), in assay [1], the IC50 was determined as 12.1 ± 8.4 µM. Still for that read-out and setting: then `CC(C)[C@H](N)C(=O)NCC(=O)N[C@H]1CSSC[C@@H](C(=O)N[C@@H](CO)C(=O)N[C@@H](CC(N)=O)C(=O)O)NC(=O)[C@H](Cc2ccc(O)cc2)NC(=O)[C@H](C)NC(=O)[C@H](CCCNC(=N)N)NC(=O)CNC1=O` [VGCGRAYCSN] (H-VGCGRAYCSN-OH; disulfide 3-8), with 17.6 ± 4.6 µM. As to `CC(C)[C@H](N)C(=O)NCC(=O)N[C@H]1CSSC[C@@H](C(=O)N[C@@H](CO)C(=O)N[C@@H](CC(N)=O)C(=O)O)NC(=O)[C@H](C)NC(=O)[C@H](CCCNC(=N)N)NC(=O)[C@H](CCCNC(=N)N)NC(=O)CNC1=O` [VGCGRRACSN] (H-VGCGRRACSN-OH; disulfide 3-8), in assay [1], the IC50 came out at 8.9 ± 5.5 µM.

For the molecule `CC(C)[C@H](N)C(=O)NCC(=O)N[C@H]1CSSC[C@@H](C(=O)N[C@@H](CO)C(=O)N[C@@H](CC(N)=O)C(=O)O)NC(=O)[C@H](Cc2ccc(O)cc2)NC(=O)[C@H](CCCNC(=N)N)NC(=O)[C@H](CCCNC(=N)N)NC(=O)CNC1=O` [VGCGRRYCSN] (H-VGCGRRYCSN-OH; disulfide 3-8), in assay [1], the IC50 worked out at 2.01 ± 1.1 µM. As to `CC(=O)N[C@H](C(=O)NCC(=O)N[C@H]1CSSC[C@@H](C(=O)N[C@@H](CO)C(=O)N[C@@H](CC(N)=O)C(=O)O)NC(=O)[C@H](Cc2ccc(O)cc2)NC(=O)[C@H](CCCNC(=N)N)NC(=O)[C@H](CCCNC(=N)N)NC(=O)[C@H](C)NC1=O)C(C)C` [ac-VGCARRYCSN] (Ac-VGCARRYCSN-OH; disulfide 3-8; C-terminus assumed), in assay [2], the IC50 is more than 1000 µM. For “CSGIGSGGC [negative control peptide, reference compound]”, in assay [1] (negative control peptide, rCD13 0.2 µg/ml, L-alanine-p-nitroanilide, Supplementary Fig. S2A), the “Inhibition of rCD13 enzymatic activity (in words)” value is listed as “no inhibition”. Turning to VGAGRRYASN [VGAGRRYASN], the IC50 in assay [1] stood at 6.2 ± 4.8 µM.

B1: … with deletion of Val-1 and Gly-2 (peptide)
peptide: CARRYCSN
On to B1, for which, in assay [3], the inhibition of rCD13 enzymatic activity, against … (fold loss of activity) is 270.

B2: … with deletion of Ser-9 and Asn-10 (peptide)
peptide: VGCARRYC
As for B2, the inhibition of rCD13 enzymatic activity, against … (fold decrease) in assay [3] came to 3.

B3: … with deletion of Val-1 (peptide)
peptide: GCARRYCSN
For B3, the inhibition of rCD13 enzymatic activity, against … (fold loss of activity) in assay [3] was determined as 200.

B4: small disulfide-bridged peptide CARRYC (peptide)
peptide: CARRYC
modifications: disulfide 1-6 (inferred)
With B4, in assay [3], the IC50 of inhibition of rCD13 enzymatic activity was 51 µM.
